From PMC12567349, “Design and Optimization of Spiro-Isatin-Thiazolidinone Hybrids with Promising Anticancer Activity” (Pharmaceuticals, 2025)

How the values were obtained:
K562 cells = assay: MTT assay, 72 h, K562; type: cell-based; conditions: Homo sapiens, mean ± SD
Description: (§1) The cytotoxic potential of the synthesized compounds was investigated using the MTT assay after 72 h incubation with a panel of human and murine cancer cell lines, including colorectal carcinoma (HCT116), estrogen receptor-positive breast adenocarcinoma (MCF-7), triple-negative breast adenocarcinoma (MDA-MB-231), epidermoid carcinoma (KB3-1), myeloid leukemia (K562), and glioblastoma (U373), and mouse breast carcinoma (4T1) cells. To assess the selectivity of the compounds, pseudo-normal cell lines—human keratinocytes (HaCaTs) and mouse fibroblasts (NIH3T3s)—were also tested under the same conditions.
(§2) Human breast adenocarcinoma cells of MCF-7 and MDA-MB-231 lines, human glioblastoma cells of U373 line, human chronic myelogenous leukemia cells of K562 line, human colorectal carcinoma cells of HCT116 line, and human epidermoid carcinoma cells of KB3-1 line were kindly donated by a Collection of the Institute for Cancer Research at Vienna Medical University (Vienna, Austria). Human keratinocytes of HaCaT line, murine breast carcinoma cells of 4T1 line, and murine fibroblasts of the NIH3T3 line were obtained from the Cell Collection of the R.E. Kavetsky Institute of Experimental Pathology, Oncology and Radiobiology of the National Academy of Sciences of Ukraine (Kyiv, Ukraine). MCF-7, MDA-MB-231, U373, K562, HaCaT, and NIH3T3 cells were cultured in DMEM medium (Sigma-Aldrich, Burlington, MA, USA) supplemented with 2 mM L-glutamine, 4500 mg/L glucose, and 1 mM sodium pyruvate. HCT116 and KB3-1 cells were maintained in RPMI-1640 medium supplemented with 2 mM L-glutamine (Sigma-Aldrich, USA). Both media were supplemented with 10% fetal bovine serum (Sigma-Aldrich, USA). All cell lines were incubated at 37 °C in a humidified atmosphere containing 5% CO2.
(§3) The substrate cells were seeded at a density of 5000 cells per 100 µL, while suspension K562 cells were seeded at 15,000 cells per 100 µL in 96-well plates and incubated overnight. Doxorubicin (Dox, Sigma-Aldrich, USA) was used as a reference drug. Studied substances were then added in 100 µL of culture medium, and the cells were further incubated for 72 h. Subsequently, 20 µL of MTT solution (5 mg/mL, Sigma-Aldrich, USA) was added to each well and incubated for 2–4 h. Formazan crystals were then solubilized by adding dimethyl sulfoxide (Sigma-Aldrich, USA). Absorbance was measured using a BioTek ELx800 Absorbance Reader (BioTek Instruments, Inc., Winooski, VT, USA). The results were analyzed and illustrated using GraphPad Prism (version 8.0.1; GraphPad Software, San Diego, CA, USA) and presented as a mean (M) ± standard deviation (SD). The IC50 values of the compounds were determined using nonlinear regression analysis in GraphPad Prism 10.4.2 [40].

U373 cells = assay: MTT assay, 72 h, U373; type: cell-based; conditions: Homo sapiens, U373 MG, mean ± SD
Description: as §1, §2, §3

NIH3T3 cells = assay: MTT assay, 72 h, NIH3T3 (pseudo-normal); type: cell-based; conditions: Mus musculus, mean ± SD
Description: as §1, §2, §3

HaCaT cells = assay: MTT assay, 72 h, HaCaT (pseudo-normal); type: cell-based; conditions: Homo sapiens, mean ± SD
Description: as §1, §2, §3

MDA-MB-231 cells = assay: MTT assay, 72 h, MDA-MB-231; type: cell-based; conditions: Homo sapiens, mean ± SD
Description: as §1, §2, §3

KB3-1 cells = assay: MTT assay, 72 h, KB3-1; type: cell-based; conditions: Homo sapiens, KB 3-1, mean ± SD
Description: as §1, §2, §3

HCT116 cells = assay: MTT assay, 72 h, HCT116; type: cell-based; conditions: Homo sapiens, HCT-116, mean ± SD
Description: as §1, §2, §3

MCF-7 cells = assay: MTT assay, 72 h, MCF-7; type: cell-based; conditions: Homo sapiens, MCF7, mean ± SD
Description: as §1, §2
as §3, with “Doxorubicin (Dox, Sigma-Aldrich, USA) was used as a reference drug.” left out

4T1 cells = assay: MTT assay, 72 h, 4T1; type: cell-based; conditions: Mus musculus, mean ± SD
Description: as §1, §2, §3

cancer cell lines = assay: MTT assay, panel of cancer cell lines; type: cell-based; conditions: 72 h, summary over the cancer cell panel, read-out: IC50 for most cancer lines
Description: as §1, §3

[1] = test system: p53 expression in A549 lung cancer cells; design: method as in PMID 38920636; conditions: A549 lung cancer cells ref 34; cited from earlier work
PPARγ = test system: PPARγ; design: method as in PMID 38920636; conditions: cited from earlier work
[2] = test system: p53 expression in normal BJ cells; design: method as in PMID 38920636; conditions: normal BJ cells ref 34; cited from earlier work

SMILES	IC50 (K562 cells) [µM]	IC50 (MDA-MB-231 cells) [µM]	IC50 (HCT116 cells) [µM]	IC50 (MCF-7 cells) [µM]	IC50 (4T1 cells) [µM]	IC50 (cancer cell lines) [µM]	IC50 (U373 cells) [µM]	IC50 (NIH3T3 cells) [µM]	IC50 (HaCaT cells) [µM]	IC50 (KB3-1 cells) [µM]	p53 expression [1]	PPARγ modulation (PPARγ)	p53 expression [2]
CC(C)(C)c1ccc(/C=C2\SC3(C(=O)Nc4ccc(Cl)cc43)N(Cc3ccccc3)C2=O)cc1 (stereo not drawn) [Compound 17, (Z)-3′-Benzyl-5′-(4-(tert-butyl)benzylidene)-5-chlorospiro[indoline-3,2′-thiazolidine]-2,4′-dione]	67.9 ± 0.81	13.5 ± 2.21	8.24 ± 0.26	6.64 ± 0.39	66 ± 4.48		32.26 ± 0.25	91 ± 1.34	10.6 ± 0.21	5.85 ± 0.42			
CC(C)(C)c1ccc(/C=C2\SC3(C(=O)Nc4ccc(F)cc43)N(Cc3ccccc3)C2=O)cc1 (stereo not drawn) [Compound 18, (Z)-3′-Benzyl-5′-(4-(tert-butyl)benzylidene)-5-fluorospiro[indoline-3,2′-thiazolidine]-2,4′-dione]	37.4 ± 0.49	6.67 ± 0.15	8.37 ± 0.51	6.99 ± 0.16	46.7 ± 1.19	6.67 to 8.37	29.8 ± 0.35	98.39 ± 0.66	> 100	7.92 ± 0.65			
CC(C)c1ccc(/C=C2\SC3(C(=O)Nc4ccccc43)N(c3ccc(Cl)cc3)C2=O)cc1 (stereo not drawn) [Les-3467]											decreasing it	acts as a PPARγ modulator	increasing its levels

Continued, in another order:

IC50 (K562 cells) [µM]	IC50 (MDA-MB-231 cells) [µM]	IC50 (HCT116 cells) [µM]	IC50 (MCF-7 cells) [µM]	IC50 (4T1 cells) [µM]	IC50 (cancer cell lines) [µM]	SMILES	IC50 (U373 cells) [µM]	IC50 (NIH3T3 cells) [µM]	IC50 (HaCaT cells) [µM]	IC50 (KB3-1 cells) [µM]	p53 expression [1]	PPARγ modulation (PPARγ)	p53 expression [2]
> 100	> 100	> 100	> 100	> 100	> 100	COc1ccc(N2C(=O)/C(=C/c3ccc(N4CCOCC4)cc3)SC23C(=O)Nc2ccc(Cl)cc23)cc1 (stereo not drawn) [Compound 8, (Z)-5-Chloro-3′-(4-methoxyphenyl)-5′-(4-morpholinobenzylidene)spiro[indoline-3,2′-thiazolidine]-2,4′-dione]	> 100	> 100	> 100	75.9 ± 4.21			
> 100	60.2 ± 0.62	> 100	> 100	> 100	> 100	CCOc1ccc(/C=C2\SC3(C(=O)Nc4ccc(Br)cc43)N(c3ccc(Br)cc3)C2=O)cc1 (stereo not drawn) [Compound 14, (Z)-5-Bromo-3′-(4-bromophenyl)-5′-(4-ethoxybenzylidene)spiro[indoline-3,2′-thiazolidine]-2,4′-dione]	89.52 ± 0.81	> 100	> 100	19.6 ± 0.23			
> 100	59.3 ± 2.27	62.7 ± 0.76	63.9 ± 0.59	60.5 ± 1.84		CCOc1ccc(/C=C2\SC3(C(=O)Nc4ccc(F)cc43)N(Cc3ccccc3)C2=O)cc1 (stereo not drawn) [Compound 19, (Z)-3′-Benzyl-5′-(4-ethoxybenzylidene)-5-fluorospiro[indoline-3,2′-thiazolidine]-2,4′-dione]	54.89 ± 0.33	94.35 ± 0.87	96.79 ± 0.78	35 ± 0.48			
